Experimental data as given in US20220267734A1, “HETEROGENEOUS STEM CELL POPULATION, PREPARATION METHOD THEREFOR AND USE THEREOF” (INSTITUTE OF BASIC MEDICAL SCIENCES, CHINESE ACADEMY OF …, priority 2019, published 2022).

What was measured:
[1] = tested on: human brain pericytes (HBPs); experiment: q-PCR gene expression in human brain pericytes under IL-1β with or without DAPT or PDTC; format: cell-based; details: for gene expression of TIMP-1: among control, IL-1β and IL-1β+inhibitor groups
Source text: We added interleukin 1β (IL-1β) to Transwell in vitro blood-brain barrier model, and cultured human brain microvascular endothelial cells (HBMVECs), human brain pericytes (HBPs) and human brain astrocytes (HBAs) in vitro. We verified HBMVECs, HBPs and HBAs by immunofluorescence staining. Among them, HBMVEC was stained with the antibody against vWF; HBP was stained with the antibodies against α-SMA and NG2, and vWF and GFAP antibodies; and HBA was stained with GFAP antibody (FIG. 8B). […] HBPs were treated with IL-1β for 30 minutes followed by DAPT treatment for 24 hours, and were subjected to q-PCR quantification. It could be seen from FIG. 8E that, compared with the control group, the gene expression of NOTCH3 in the IL-1β group was increased; compared with the IL-1β group, the gene expression of NOTCH3 in the IL-1β+DAPT group was reduced.

[2] = tested on: subpluripotent stem cells; experiment: IRISIN-induced differentiation into beige adipocytes (UCP1 marker); format: cell-based; details: marker protein UCP1 by real-time fluorescence quantification and western blotting, P<0.05
Source text: In recent years, a new hormone IRISIN has been discovered, which is a muscle factor secreted after exercise. It is released from the cleavage of its precursor—fibronectin III domain containing 5 (Fndc5), and is involved in the function of the muscles, the cardiovascular system, the nerves and energy metabolism. In the process of energy regulation, IRISIN is a potential regulator in sugar metabolism. In this study, we used the heterogeneous stem cell population of the present invention as seed cells, and used IRISIN to induce them to differentiate into beige adipocytes (see FIG. 9).
The adipose tissue was washed twice with D-Hanks' solution containing dual antibiotics (penicillin, streptomycin), and centrifuged at 800 rpm for 3 min. The lower layer of the liquid after washing was removed with a pipette and the adipose tissue was transferred to a new centrifugation tube of 50 ml. 0.2% collagenase P was added for digestion. The tube was incubated in a shaker at a constant temperature of 37° C. for 30 min. An appropriate amount of D-Hanks' solution was added to the digested adipose tissue, which was then filtered with a […] cell sieve to remove undigested tissue. The mixture was centrifuged at 1500 rpm for 10 min. The upper layer of grease was removed with a pipette, then the supernatant was discarded and the cell pellet was re-suspended in D-Hanks' solution and washed once. […]

[3] = IL-1β 30 minutes then inhibitor 24 hours, compared with the IL-1β group
[4] = IL-1β group compared with the control group

N.S=C(S)N1CCCC1 [PDTC]
gene expression of NOTCH3 [1, 3]: did not change much | gene expression of TIMP-1 [1]: did not change significantly

IL-1β: interleukin 1β added to Transwell in vitro blood-brain barrier model
gene expression of MMP-9 [1, 4]: significantly increased | gene expression of NF-κB p65 [1, 4]: significantly increased | gene expression of NOTCH3 [1, 4]: increased

C[C@H](NC(=O)Cc1cc(F)cc(F)c1)C(=O)N[C@H](C(=O)OC(C)(C)C)c1ccccc1 [DAPT]
gene expression of MMP-9 [1, 3]: significantly lower | gene expression of NF-κB p65 [1, 3]: significantly reduced | gene expression of NOTCH3 [1, 3]: reduced | gene expression of TIMP-1 [1]: did not change much

B1: IRISIN: muscle factor secreted after exercise, released by cleavage of Fndc5 (protein, UniProt Q8NAU1 1-191, looked up)
Irisin: MQAARGGAGRPERPGRPGRGPERERERPPGAGAASPCAAPGLPAGGATIHPGSPSAWPPRARAALRLWLGCVCFALVQADSPSAPVNVTVRHLKANSAVVSWDVLEDEVVIGFAISQQKKDVRMLRFIQEVNTTTRSCALWDLEEDTEYIVHVQAISIQGQSPASEPVLFKTPREAEKMASKNKDEVTMKE
modifications: Irisin
notes: muscle factor secreted after exercise, released by cleavage of Fndc5
differentiation into beige adipocytes [2]: induces the differentiation
